# What was measured:
# [1] = test system: human adrenal gland section expressing aldosterone-producing adenoma; test: In vitro autoradiography using human adrenal adenoma; assay type: binding; details: section of FIG. 17(b)
# Summary of the method: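 Autoradiography readout: PSL in equal-sized ROIs over adenoma (B2) and normal adrenal cortex (B1), expressed as B2/B1 and decay-corrected using half-life, applied activity and plate contact time. Tissue was surgically excised human adrenal, frozen and cut at 7 μm, incubated 10 min with 5-33 kBq/mL tracer in BSA-containing PBS, then imaged after 16-20 h exposure.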
# [2] = In vivo kinetics experiment (radioactivity distribution); parameters: species or system Wistar male rat; details: rat, caudal vein
# Summary of the method: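 Tissue radioactivity (% ID/g) and adrenal-to-blood, liver, kidney, small intestine, muscle and fat ratios determined at 10, 30 and 60 min post-dose. Tracers (approximately 1 to 3.7 MBq, saline with 1 w/v % ascorbic acid) injected i.v. into caudal vein of anesthetized 9-week male Wistar rats; organs excised, weighed, counted.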
# [3] = Plasma stability evaluation (TLC analysis); assay type: in vitro ADME; details: 37° C., 60 minutes, TLC analysis
# Summary of the method: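 TLC analysis, using each compound's synthesis conditions, judged stability after methanol was added and samples were centrifuged to remove protein. Beforehand, each tracer had spent 60 minutes at 37° C in pooled heparinized normal human plasma.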
smiles,measurement,setting,value
"[123I]c1ccc2nc(-c3cncc(Cn4ccnn4)c3)n(C3CC3)c2c1 [[^123I] 603, 1-Cyclopropyl-2-[3-(1H-1,2,3-triazol-1-ylmethyl)pyridin-5-yl]-6-[^123I]iodo-1H-benzimidazole]",B2/B1 accumulation ratio,[1],1.01
same,"B2 (PSL value, aldosterone-producing adenoma)",[1]; site 71b,2043
same,"B1 (PSL value, normal adrenal cortex)",[1]; site 72b,2027
same,Adrenal gland/blood ratio of radioactivity accumulation,[2]; 10 min after administration,52.24 ± 16.82
same,Adrenal gland/fat ratio of radioactivity accumulation,[2]; 10 min after administration,49.21 ± 30.24
same,Adrenal gland/kidney ratio of radioactivity accumulation,[2]; 10 min after administration,3.95 ± 1.50
same,Adrenal gland/liver ratio of radioactivity accumulation,[2]; 10 min after administration,4.37 ± 1.12
same,Adrenal gland/muscle ratio of radioactivity accumulation,[2]; 10 min after administration,34.85 ± 6.45
same,Adrenal gland/small intestine ratio of radioactivity accumulation,[2]; 10 min after administration,3.44 ± 1.04
same,Radioactivity distribution Adrenal gland,[2]; 10 min after administration,10.24 ± 4.48 % ID/g
same,Radioactivity distribution Bladder (including urine),[2]; 10 min after administration,0.43 ± 0.13 % ID/g
same,Radioactivity distribution Blood,[2]; 10 min after administration,0.13 ± 0.01 % ID/g
same,Radioactivity distribution Fat,[2]; 10 min after administration,0.11 ± 0.01 % ID/g
same,Radioactivity distribution Femur,[2]; 10 min after administration,0.85 ± 0.40 % ID/g
same,Radioactivity distribution Heart,[2]; 10 min after administration,0.65 ± 0.09 % ID/g
same,Radioactivity distribution Kidney,[2]; 10 min after administration,2.09 ± 0.09 % ID/g
same,Radioactivity distribution Large intestine,[2]; 10 min after administration,0.11 ± 0.01 % ID/g
same,Radioactivity distribution Liver,[2]; 10 min after administration,4.09 ± 0.45 % ID/g
same,Radioactivity distribution Lung,[2]; 10 min after administration,0.98 ± 0.16 % ID/g
same,Radioactivity distribution Muscle (lower limbs),[2]; 10 min after administration,0.18 ± 0.05 % ID/g
same,Radioactivity distribution Remaining whole body,[2]; 10 min after administration,0.24 ± 0.01 % ID/g
same,Radioactivity distribution Small intestine,[2]; 10 min after administration,1.29 ± 0.12 % ID/g
same,Radioactivity distribution Spleen,[2]; 10 min after administration,5.59 ± 1.78 % ID/g
same,Radioactivity distribution Stomach,[2]; 10 min after administration,0.66 ± 0.34 % ID/g
same,Radioactivity distribution Testis,[2]; 10 min after administration,0.04 ± 0.01 % ID/g
same,Radioactivity distribution Whole brain,[2]; 10 min after administration,0.01 ± 0.00 % ID/g
same,Adrenal gland/blood ratio of radioactivity accumulation,[2]; 30 min after administration,199.21 ± 91.92
same,Adrenal gland/fat ratio of radioactivity accumulation,[2]; 30 min after administration,106.15 ± 23.20
same,Adrenal gland/kidney ratio of radioactivity accumulation,[2]; 30 min after administration,12.16 ± 7.12
same,Adrenal gland/liver ratio of radioactivity accumulation,[2]; 30 min after administration,17.77 ± 9.08
same,Adrenal gland/muscle ratio of radioactivity accumulation,[2]; 30 min after administration,98.15 ± 67.95
same,Adrenal gland/small intestine ratio of radioactivity accumulation,[2]; 30 min after administration,3.25 ± 1.07
same,Radioactivity distribution Adrenal gland,[2]; 30 min after administration,15.46 ± 8.64 % ID/g
same,Radioactivity distribution Bladder (including urine),[2]; 30 min after administration,1.13 ± 0.19 % ID/g
same,Radioactivity distribution Blood,[2]; 30 min after administration,0.10 ± 0.02 % ID/g
same,Radioactivity distribution Fat,[2]; 30 min after administration,0.12 ± 0.03 % ID/g
same,Radioactivity distribution Femur,[2]; 30 min after administration,0.83 ± 0.03 % ID/g
same,Radioactivity distribution Heart,[2]; 30 min after administration,0.64 ± 0.04 % ID/g
same,Radioactivity distribution Kidney,[2]; 30 min after administration,1.65 ± 0.27 % ID/g
same,Radioactivity distribution Large intestine,[2]; 30 min after administration,0.14 ± 0.02 % ID/g
same,Radioactivity distribution Liver,[2]; 30 min after administration,1.89 ± 0.21 % ID/g
same,Radioactivity distribution Lung,[2]; 30 min after administration,0.97 ± 0.10 % ID/g
same,Radioactivity distribution Muscle (lower limbs),[2]; 30 min after administration,0.16 ± 0.02 % ID/g
same,Radioactivity distribution Remaining whole body,[2]; 30 min after administration,0.27 ± 0.01 % ID/g
same,Radioactivity distribution Small intestine,[2]; 30 min after administration,3.40 ± 0.80 % ID/g
same,Radioactivity distribution Spleen,[2]; 30 min after administration,6.71 ± 0.48 % ID/g
same,Radioactivity distribution Stomach,[2]; 30 min after administration,0.61 ± 0.14 % ID/g
same,Radioactivity distribution Testis,[2]; 30 min after administration,0.05 ± 0.01 % ID/g
same,Radioactivity distribution Whole brain,[2]; 30 min after administration,0.01 ± 0.00 % ID/g
same,Adrenal gland/blood ratio of radioactivity accumulation,[2]; 60 min after administration,235.46 ± 58.57
same,Adrenal gland/fat ratio of radioactivity accumulation,[2]; 60 min after administration,108.45 ± 23.85
same,Adrenal gland/kidney ratio of radioactivity accumulation,[2]; 60 min after administration,13.73 ± 3.51
same,Adrenal gland/liver ratio of radioactivity accumulation,[2]; 60 min after administration,20.07 ± 5.16
same,Adrenal gland/muscle ratio of radioactivity accumulation,[2]; 60 min after administration,124.82 ± 30.33
same,Adrenal gland/small intestine ratio of radioactivity accumulation,[2]; 60 min after administration,2.42 ± 0.71
same,Radioactivity distribution Adrenal gland,[2]; 60 min after administration,18.65 ± 1.67 % ID/g
same,Radioactivity distribution Bladder (including urine),[2]; 60 min after administration,3.04 ± 1.32 % ID/g
same,Radioactivity distribution Blood,[2]; 60 min after administration,0.06 ± 0.01 % ID/g
same,Radioactivity distribution Fat,[2]; 60 min after administration,0.12 ± 0.04 % ID/g
same,Radioactivity distribution Femur,[2]; 60 min after administration,0.90 ± 0.10 % ID/g
same,Radioactivity distribution Heart,[2]; 60 min after administration,0.56 ± 0.01 % ID/g
same,Radioactivity distribution Kidney,[2]; 60 min after administration,1.23 ± 0.01 % ID/g
same,Radioactivity distribution Large intestine,[2]; 60 min after administration,0.55 ± 0.52 % ID/g
same,Radioactivity distribution Liver,[2]; 60 min after administration,0.96 ± 0.10 % ID/g
same,Radioactivity distribution Lung,[2]; 60 min after administration,0.78 ± 0.03 % ID/g
same,Radioactivity distribution Muscle (lower limbs),[2]; 60 min after administration,0.14 ± 0.01 % ID/g
same,Radioactivity distribution Remaining whole body,[2]; 60 min after administration,0.28 ± 0.04 % ID/g
same,Radioactivity distribution Small intestine,[2]; 60 min after administration,3.98 ± 1.32 % ID/g
same,Radioactivity distribution Spleen,[2]; 60 min after administration,5.62 ± 1.11 % ID/g
same,Radioactivity distribution Stomach,[2]; 60 min after administration,0.89 ± 0.21 % ID/g
same,Radioactivity distribution Testis,[2]; 60 min after administration,0.05 ± 0.01 % ID/g
same,Radioactivity distribution Whole brain,[2]; 60 min after administration,0.01 ± 0.00 % ID/g
same,Radiochemical purity after incubation in human plasma,[3],94%
